Test results: patent US20260053811A1, “METHODS OF TREATING HYPERTENSION IN OBESE SUBJECTS” (Mineralys Therapeutics, Inc., priority 2022, published 2026)

Test system: hypertensive subjects
Experiment: Seated automated office blood pressure (AOBP) in randomized, placebo-controlled, dose-ranging study
Type: in vivo, human
Conditions: Part 1
Experimental: A randomized, double-blinded, placebo-controlled, dose-ranging, multicenter study was conducted to evaluate the effect of orally administered Compound A HBr on blood pressure for the treatment of hypertension in male and female subjects ≥18 years of age.
The study consists of two parts. For enrollment into Part 1 of the study, a subject's value of plasma renin activity (PRA) must be ≤1 ng/mL/h based on morning measurement. If the value of PRA >1 ng/mL/h based on morning measurement, then subjects may be eligible to enter Part 2 of the study.
For Part 1, 163 enrolled subjects ≥18 years of age were randomized into 6 equal treatment groups (1:1:1:1:1:1) to 12.5 mg BID, 25 mg BID, 12.5 mg QD, 50 mg QD, 100 mg QD, or placebo. After a review of interim clinical data, the 2 lowest dose levels (12.5 mg QD and 12.5 mg BID) were stopped for future randomization due to a lack of consistent meaningful reduction of blood pressure, but the patients randomized to that point remained in the study through completion. Thus, after the review of interim clinical data, subjects were randomized into 4 equal treatment groups (1:1:1:1) to 25 mg BID, 50 mg QD, 100 mg QD, or placebo.
For Part 2, 36 enrolled subjects ≥18 years of age were randomized (5:1) to either 100 mg QD Compound A HBr or placebo such that the Compound A HBr treatment group consisted of approximately 30 subjects and the placebo treatment group will consist of approximately 6 subjects.
Subjects orally administered the assigned study drug (Compound A HBr or placebo) according to the assigned dosing regimen for 8 weeks beginning on Study Day 1. All subjects in Part 1 (regardless of dosing group) received BID dosing to preserve the integrity of the blind; active drug is administered as the morning dose for all QD dose groups. Subjects returned to the research facility or were seen by the clinical investigator or approved home health care professional at the end of Study Weeks 1, 2, 3, 4, 5, 6, 7, and 8 (±2 days) for protocol-defined efficacy and safety assessments and procedures, assessment of adverse events (AEs), and confirmation of compliance with study drug usage. Subjects also completed a telephone visit and blood pressure (BP) check at home approximately 3 days post last dose of study drug. Subjects attended up to 14 full clinic visits, including a pre-Screening visit, a Screening/start of Placebo Run-in visit, a second visit during Placebo Run-in, a clinic visit to initiate the ABPM procedure, a Randomization visit, 8 weekly visits during double-blind treatment, and an end-of-study visit scheduled 4 weeks after the last study treatment for final efficacy and safety assessments.
An automated oscillometric sphygmomanometer device was used to measure the subjects' systolic and diastolic blood pressure in office after approximately 5 minutes of rest in the seated position.
The primary endpoint is the change in office-measured (mean of last 2 of 5 unattended measurements using an automated oscillometric sphygmomanometer device after approximately 5 minutes of rest in the seated position) systolic blood pressure (SBP) from baseline to the end of Study Week 8.
Secondary endpoints of this study were: • (a) Change in 24-hour ambulatory blood pressure monitoring (ABPM) parameters (systolic and diastolic) from baseline to the end of Study Week 7. • (b) Change in office-measured SBP from baseline to the end of Study Weeks 1, 2, 3, 4, 5, 6, and 7. • (c) Change in office-measured diastolic blood pressure (DBP) from baseline to the end of Study Weeks 1, 2, 3, 4, 5, 6, 7, and 8. • (d) Proportion of subjects who achieve office-measured BP of ≤130/80 mm Hg by the end of Study Week 8.

[1] = 50 mg QD, Systolic Blood Pressure Tertile at Baseline High
[2] = 50 mg QD, Systolic Blood Pressure Tertile at Baseline Low
[3] = 50 mg QD, Systolic Blood Pressure Tertile at Baseline Middle
[4] = 50 mg QD, Thiazide Diuretic Use at Baseline No
[5] = 50 mg QD, Thiazide Diuretic Use at Baseline Yes

## CC(=O)N[C@H]1CC[C@H](NC(=O)CN2CCN(c3nncc(-c4ccc(C)cc4)n3)CC2)CC1 [Compound A HBr]
50 mg QD, Seated SBP Tertile Middle
  Mean (SD) Change from Baseline at Week 8 in Automated Office-Measured Diastolic Blood Pressure: −10.63 (7.25) mmHg
50 mg QD, Sex Female
  Mean (SD) Automated Office-Measured Diastolic Blood Pressure at Wk 8: 75.67 (12.10) mmHg
  Mean (SD) Automated Office-Measured Systolic Blood Pressure at Wk 8: 125.67 (11.97) mmHg
  Mean (SD) Change from Baseline at Week 8 in Automated Office-Measured Diastolic Blood Pressure: −9.20 (10.37) mmHg
  Mean (SD) Change from Baseline at Week 8 in Automated Office-Measured Systolic Blood Pressure: −15.97 (18.44) mmHg
50 mg QD, Sex Male
  Mean (SD) Automated Office-Measured Diastolic Blood Pressure at Wk 8: 78.15 (6.52) mmHg
  Mean (SD) Change from Baseline at Week 8 in Automated Office-Measured Diastolic Blood Pressure: −6.73 (7.65) mmHg
  Mean (SD) Change from Baseline at Week 8 in Automated Office-Measured Systolic Blood Pressure: −9.96 (15.67) mmHg
[1]
  Mean (SD) Automated Office-Measured Systolic Blood Pressure at Wk 8: 127.25 (17.59) mmHg
  Mean (SD) Change from Baseline at Week 8 in Automated Office-Measured Systolic Blood Pressure: −29.25 (14.31) mmHg
[2]
  Mean (SD) Automated Office-Measured Systolic Blood Pressure at Wk 8: 130.25 (12.04) mmHg
  Mean (SD) Change from Baseline at Week 8 in Automated Office-Measured Systolic Blood Pressure: −2.58 (12.54) mmHg
[3]
  Mean (SD) Automated Office-Measured Systolic Blood Pressure at Wk 8: 127.63 (13.35) mmHg
  Mean (SD) Change from Baseline at Week 8 in Automated Office-Measured Systolic Blood Pressure: −13.00 (14.05) mmHg
[4]
  Automated Office-Measured Diastolic Blood Pressure, Week 8, Mean (SD): 78.00 (6.42) mmHg
  Mean (SD) Automated Office-Measured Systolic Blood Pressure at Wk 8: 130.00 (13.65) mmHg
  Mean (SD) Change from Baseline at Week 8 in Automated Office-Measured Diastolic Blood Pressure: −4.71 (7.77) mmHg
  Mean (SD) Change from Baseline at Week 8 in Automated Office-Measured Systolic Blood Pressure: −7.67 (15.11) mmHg
[5]
  Automated Office-Measured Diastolic Blood Pressure, Week 8, Mean (SD): 75.94 (11.89) mmHg
  Mean (SD) Automated Office-Measured Systolic Blood Pressure at Wk 8: 127.63 (14.08) mmHg
  Mean (SD) Change from Baseline at Week 8 in Automated Office-Measured Diastolic Blood Pressure: −10.56 (9.49) mmHg
  Mean (SD) Change from Baseline at Week 8 in Automated Office-Measured Systolic Blood Pressure: −17.31 (17.91) mmHg
100 mg QD, ACEi/ARB No
  Mean (SD) Automated Office-Measured Systolic Blood Pressure at Wk 8: 116.80 (7.19) mmHg
  Mean (SD) Change from Baseline at Week 8 in Automated Office-Measured Systolic Blood Pressure: −23.70 (8.89) mmHg
100 mg QD, ACEi/ARB Yes
  Mean (SD) Automated Office-Measured Systolic Blood Pressure at Wk 8: 134.90 (13.12) mmHg
  Mean (SD) Change from Baseline at Week 8 in Automated Office-Measured Systolic Blood Pressure: −11.68 (13.23) mmHg
100 mg QD, ACEi/ARBs No
  Mean (SD) Automated Office-Measured Diastolic Blood Pressure at Wk 8: 71.40 (10.62) mmHg
  Mean (SD) Change from Baseline at Week 8 in Automated Office-Measured Diastolic Blood Pressure: −9.00 (6.21) mmHg
100 mg QD, ACEi/ARBs Yes
  Mean (SD) Automated Office-Measured Diastolic Blood Pressure at Wk 8: 73.40 (9.37) mmHg
  Mean (SD) Change from Baseline at Week 8 in Automated Office-Measured Diastolic Blood Pressure: −4.58 (8.10) mmHg
100 mg QD, AHTs 2
  Mean (SD) Automated Office-Measured Diastolic Blood Pressure at Wk 8: 74.09 (4.66) mmHg
  Mean (SD) Automated Office-Measured Systolic Blood Pressure at Wk 8: 124.82 (13.25) mmHg
  Mean (SD) Change from Baseline at Week 8 in Automated Office-Measured Diastolic Blood Pressure: −8.09 (8.81) mmHg
  Mean (SD) Change from Baseline at Week 8 in Automated Office-Measured Systolic Blood Pressure: −17.95 (15.83) mmHg
100 mg QD, AHTs ≥3
  Mean (SD) Automated Office-Measured Diastolic Blood Pressure at Wk 8: 72.14 (12.08) mmHg
  Mean (SD) Automated Office-Measured Systolic Blood Pressure at Wk 8: 136.36 (13.05) mmHg
  Mean (SD) Change from Baseline at Week 8 in Automated Office-Measured Diastolic Blood Pressure: −3.39 (6.60) mmHg
  Mean (SD) Change from Baseline at Week 8 in Automated Office-Measured Systolic Blood Pressure: −11.04 (10.45) mmHg
100 mg QD, Age 65-79 yr
  Mean (SD) Automated Office-Measured Diastolic Blood Pressure at Wk 8: 72.80 (7.89) mmHg
  Mean (SD) Automated Office-Measured Systolic Blood Pressure at Wk 8: 133.73 (12.53) mmHg
  Mean (SD) Change from Baseline at Week 8 in Automated Office-Measured Diastolic Blood Pressure: −4.37 (7.01) mmHg
  Mean (SD) Change from Baseline at Week 8 in Automated Office-Measured Systolic Blood Pressure: −9.53 (11.49) mmHg
100 mg QD, Age <65 yr
  Mean (SD) Automated Office-Measured Diastolic Blood Pressure at Wk 8: 78.33 (9.69) mmHg
  Mean (SD) Automated Office-Measured Systolic Blood Pressure at Wk 8: 129.33 (20.63) mmHg
  Mean (SD) Change from Baseline at Week 8 in Automated Office-Measured Diastolic Blood Pressure: −8.67 (10.16) mmHg
  Mean (SD) Change from Baseline at Week 8 in Automated Office-Measured Systolic Blood Pressure: −22.75 (14.75) mmHg
